Patent US20180186755A1, “LYSYL OXIDASE-LIKE 2 INHIBITORS AND USES THEREOF” (PharmAkea, Inc., priority 2015, published 2018)
Structures can show the parent of a compound that is named as a salt.

Target: T1, human LOXL2 (Homo sapiens, UniProt Q9Y4K0)
T1 construct: expressed in transfected cells; 10-20x concentrated conditioned media used as the enzyme source
T1 sequence (Q9Y4K0 26-774): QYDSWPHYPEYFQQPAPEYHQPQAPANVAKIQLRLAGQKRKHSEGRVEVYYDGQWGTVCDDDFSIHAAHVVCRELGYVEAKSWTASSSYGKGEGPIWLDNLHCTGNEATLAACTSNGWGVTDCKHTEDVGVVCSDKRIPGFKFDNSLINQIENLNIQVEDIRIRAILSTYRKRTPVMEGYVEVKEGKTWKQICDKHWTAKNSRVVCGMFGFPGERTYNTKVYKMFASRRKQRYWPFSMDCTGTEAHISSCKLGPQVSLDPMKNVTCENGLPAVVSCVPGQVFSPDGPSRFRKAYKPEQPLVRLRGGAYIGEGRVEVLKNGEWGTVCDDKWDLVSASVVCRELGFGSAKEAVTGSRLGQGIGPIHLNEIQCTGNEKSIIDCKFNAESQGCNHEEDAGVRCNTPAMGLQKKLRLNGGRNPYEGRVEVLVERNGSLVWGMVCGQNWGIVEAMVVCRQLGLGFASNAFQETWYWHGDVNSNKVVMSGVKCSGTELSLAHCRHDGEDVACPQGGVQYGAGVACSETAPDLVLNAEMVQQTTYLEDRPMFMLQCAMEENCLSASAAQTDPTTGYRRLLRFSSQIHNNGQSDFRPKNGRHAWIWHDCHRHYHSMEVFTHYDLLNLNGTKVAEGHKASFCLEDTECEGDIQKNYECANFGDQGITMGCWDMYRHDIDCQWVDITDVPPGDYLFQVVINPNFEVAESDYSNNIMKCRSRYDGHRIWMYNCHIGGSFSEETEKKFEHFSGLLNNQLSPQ
Assay: Human LOXL2 amine oxidase activity assay (Amplex Red fluorescence)
Format: biochemical
Conditions: concentrated conditioned media from CHO cells stably expressing human LOXL2; 2 h at 37° C. preincubation; DAP substrate
Description: Example B-1: Human LOXL2 Amine Oxidase Activity Assay
LOXL2 amine oxidase activity is evaluated by measuring Amplex Red fluorescence using 10-20× concentrated conditioned media from CHO cells stably expressing human LOXL2.
To assay for amine oxidase activity, 10 μL of the concentrated conditioned media is incubated with 2 μL of test compound in DMSO and 73 μL Assay Buffer (50 mM Borate Buffer, pH8) for 2 h at 37° C. After the 2 h incubation, 5 ul of 10 mM 1,5-Diaminopentane (DAP) diluted in Assay Buffer and 10 μl of Amplex Red Mix (8.5 μl Assay Buffer+0.5 μl of 10 mM Amplex Red+1 μl of 500 U/ml Horseradish Peroxidase) are added and the plate mixed and immediately placed on the FlexStaion for fluorescence measurements. Fluorescence is read in kinetic mode every 2 min for 1 hour at excitation=544 and emission=590. The amine oxidase activity is calculated from the slope of the linear portion of the curve.

| IC50 [nM] | SMILES |
| --- | --- |
| < 100 | CC(C)(O)CNC(=O)c1cccc(COc2cc(CN)ncn2)c1 [Compound 1-34, 3-(((6-(Aminomethyl)pyrimidin-4-yl)oxy)methyl)-N-(2-hydroxy-2-methylpropyl)benzamide] |
| < 100 | CS(=O)(=O)CCNC(=O)c1cccc(COc2cc(CN)ncn2)c1 [Compound 1-37, 3-(((6-(Aminomethyl)pyrimidin-4-yl)oxy)methyl)-N-(2-(methylsulfonyl)ethyl)benzamide] |
| < 100 | NCc1cc(OCc2cccc(C(=O)NCCN3CCOC3=O)c2)ncn1 [Compound 1-38, 3-(((6-(Aminomethyl)pyrimidin-4-yl)oxy)methyl)-N-(2-(2-oxooxazolidin-3-yl)ethyl)benzamide] |
| < 100 | NCc1cc(OCc2cccc(C(=O)NCCn3cccn3)c2)ncn1 [Compound 1-39, N-(2-(1H-Pyrazol-1-yl)ethyl)-3-(((6-(aminomethyl)pyrimidin-4-yl)oxy)methyl)benzamide] |
| < 100 | NCc1cc(OCc2cccc(C(=O)Nc3ccccc3)c2)ncn1 [Compound 1-40, 3-(((6-(Aminomethyl)pyrimidin-4-yl)oxy)methyl)-N-phenylbenzamide] |
| < 100 | NCc1cc(OCc2cccc(C(=O)NCc3ccccc3)c2)ncn1 [Compound 1-41, 3-(((6-(Aminomethyl)pyrimidin-4-yl)oxy)methyl)-N-benzylbenzamide] |
| < 100 | NCc1cc(Nc2cccc(C(=O)Nc3ccccc3)c2)ncn1 [Compound 1-42, 3-((6-(Aminomethyl)pyrimidin-4-yl)amino)-N-phenylbenzamide] |
| < 100 | NCc1cc(NCc2cccc(C(=O)Nc3ccccc3)c2)ncn1 [Compound 1-43, 3-(((6-(Aminomethyl)pyrimidin-4-yl)amino)methyl)-N-phenylbenzamide] |
| 100 to 1000 | NCc1cc(NCc2cccc(C(=O)Nc3ccc(C(=O)O)cc3)c2)ncn1 [Compound 1-44, 4-(3-(((6-(Aminomethyl)pyrimidin-4-yl)amino)methyl)benzamido)benzoic acid] |
| 100 to 1000 | CN(Cc1cccc(C(=O)Nc2ccccc2)c1)c1cc(CN)ncn1 [Compound 1-45, 3-(((6-(Aminomethyl)pyrimidin-4-yl)(methyl)amino)methyl)-N-phenylbenzamide] |
| < 100 | NCc1cc(OCc2cccc(C(=O)NCCn3cnnn3)c2)ncn1 [Compound 1-46, N-(2-(1H-Tetrazol-1-yl)ethyl)-3-(((6-(aminomethyl)pyrimidin-4-yl)oxy)methyl)benzamide] |
| < 100 | CS(=O)(=O)CCN1C(=O)CCc2c(Oc3cc(CN)ncn3)cccc21 [Compound 1-47, 5-((6-(Aminomethyl)pyrimidin-4-yl)oxy)-1-(2-(methylsulfonyl)ethyl)-3,4-dihydroquinolin-2(1H)-one] |
| < 100 | NCc1cc(Oc2cccc3c2ccn3CCO)ncn1 [Compound 1-48, 2-(4-((6-(Aminomethyl)pyrimidin-4-yl)oxy)-1H-indol-1-yl)ethan-1-ol] |
| 100 to 1000 | NCc1cc(Oc2cccc3c2ccn3C2COC2)ncn1 [Compound 1-49, (6-((1-(Oxetan-3-yl)-1H-indol-4-yl)oxy)pyrimidin-4-yl)methanamine] |
| < 100 | NCc1cc(Oc2cccc(C(=O)N3CCc4ccc(Cl)cc43)c2)ncn1 [Compound 1-50, (3-((6-(Aminomethyl)pyrimidin-4-yl)oxy)phenyl)(6-chloroindolin-1-yl)methanone] |
| < 100 | NCc1cc(Oc2cccc(C(=O)N3CCc4cccnc43)c2)ncn1 [Compound 1-51, (3-((6-(Aminomethyl)pyrimidin-4-yl)oxy)phenyl)(2,3-dihydro-H-pyrrolo[2,3-b]pyridin-1-yl)methanone, hydrochloride] |
| < 100 | NCc1cc(Oc2cccc(C(=O)N3CCc4ccncc43)c2)ncn1 [Compound 1-52, (3-((6-(Aminomethyl)pyrimidin-4-yl)oxy)phenyl)(2,3-dihydro-H-pyrrolo[2,3-c]pyridin-1-yl)methanone, hydrochloride] |
| < 100 | NCc1cc(Oc2cccc(C(=O)NCc3cc4ccccc4[nH]3)c2)ncn1 [Compound 1-53, N-((1H-Indol-2-yl)methyl)-3-((6-(aminomethyl)pyrimidin-4-yl)oxy)benzamide] |

| IC50 [nM] | SMILES |
| --- | --- |
| < 100 | NCc1cc(Oc2cccc(C(=O)NCc3cccnc3)c2)ncn1 [Compound 1-54, 3-((6-(Aminomethyl)pyrimidin-4-yl)oxy)-N-(pyridin-3-ylmethyl)benzamide] |
| < 100 | NCc1cc(Oc2cccc(C(=O)NCc3ccccc3)c2)ncn1 [Compound 1-56, 3-((6-(Aminomethyl)pyrimidin-4-yl)oxy)-N-benzylbenzamide] |
| < 100 | NCc1cc(Oc2cccc(C(=O)N[C@@H](CO)c3ccccc3)c2)ncn1 [Compound 1-57, (R)-3-((6-(Aminomethyl)pyrimidin-4-yl)oxy)-N-(2-hydroxy-1-phenylethyl)benzamide] |
| < 100 | NCc1cc(Oc2cccc(C(=O)N3CCN(c4ccccn4)CC3)c2)ncn1 [Compound 1-58, (3-((6-(Aminomethyl)pyrimidin-4-yl)oxy)phenyl)(4-(pyridin-2-yl)piperazin-1-yl)methanone] |
| < 100 | CC1(C)CCN(C(=O)c2cccc(Oc3cc(CN)ncn3)c2)CC1 [Compound 1-59, (3-((6-(Aminomethyl)pyrimidin-4-yl)oxy)phenyl)(4,4-dimethylpiperidin-1-yl)methanone] |
| < 100 | NCc1cc(Oc2cccc3[nH]ncc23)ncn1 [Compound 1-60, (6-((1H-Indazol-4-yl)oxy)pyrimidin-4-yl)methanamine] |
| < 100 | NCc1cc(-n2ncc3c(CO)cccc32)ncn1 [Compound 1-61, (1-(6-(Aminomethyl)pyrimidin-4-yl)-1H-indazol-4-yl)methanol] |
| < 100 | NCc1cc(Oc2cccc(C(=O)NCc3ccc(-c4ccc(F)cc4)cc3)c2)ncn1 [Compound 1-62, 3-((6-(Aminomethyl)pyrimidin-4-yl)oxy)-N-((4′-fluoro-[1,1′-biphenyl]-4-yl)methyl)benzamide] |
| < 100 | NCc1cc(Oc2cccc(C(=O)NCc3ccc4ccccc4n3)c2)ncn1 [Compound 1-63, 3-((6-(Aminomethyl)pyrimidin-4-yl)oxy)-N-(quinolin-2-ylmethyl)benzamide] |
| < 100 | NCc1cc(Oc2cccc(C(=O)NCc3sc4ccccc4c3Cl)c2)ncn1 [Compound 1-64, 3-((6-(Aminomethyl)pyrimidin-4-yl)oxy)-N-((3-chlorobenzo[b]thiophen-2-yl)methyl)benzamide] |
| < 100 | NCc1cc(Oc2cccc(C(=O)NCc3cc4cc(F)ccc4[nH]3)c2)ncn1 [Compound 1-65, 3-((6-(Aminomethyl)pyrimidin-4-yl)oxy)-N-((5-fluoro-1H-indol-2-yl)methyl)benzamide] |
| < 100 | Cn1c(CNC(=O)c2cccc(Oc3cc(CN)ncn3)c2)cc2ccccc21 [Compound 1-66, 3-((6-(Aminomethyl)pyrimidin-4-yl)oxy)-N-((1-methyl-1H-indol-2-yl)methyl)benzamide] |
| < 100 | NCc1cc(Oc2cccc(C(=O)NCc3cc4cccnc4[nH]3)c2)ncn1 [Compound 1-67, N-((1H-Pyrrolo[2,3-b]pyridin-2-yl)methyl)-3-((6-(aminomethyl)pyrimidin-4-yl)oxy)benzamide] |
| < 100 | NCc1cc(Oc2cccc(C(=O)NCc3nc4ccccc4o3)c2)ncn1 [Compound 1-68, 3-((6-(Aminomethyl)pyrimidin-4-yl)oxy)-N-(benzo[d]oxazol-2-ylmethyl)benzamide] |
| < 100 | NCc1cc(Oc2cccc(C(=O)N3CCc4cccnc4C3)c2)ncn1 [Compound 1-69, (3-((6-(Aminomethyl)pyrimidin-4-yl)oxy)phenyl)(5,6-dihydro-1,7-naphthyridin-7(8H)-yl)methanone] |
| < 100 | Cc1n[nH]c2c1CN(C(=O)c1cccc(Oc3cc(CN)ncn3)c1)CC2 [Compound 1-70, (3-((6-(Aminomethyl)pyrimidin-4-yl)oxy)phenyl)(3-methyl-6,7-dihydro-1H-pyrazolo[4,3-c]pyridin-5(4H)-yl)methanone] |
| < 100 | NCc1cc(Oc2cccc(C(=O)N3CCc4c([nH]c5ncccc45)C3)c2)ncn1 [Compound 1-71, (3-((6-(Aminomethyl)pyrimidin-4-yl)oxy)phenyl)(5H-pyrrolo[2,3-b:5,4-c′]dipyridin-7(6H,8H,9H)-yl)methanone] |
